Laboratory results: ChEMBL document CHEMBL1132400, “A combinatorial approach to the identification of dipeptide aldehyde inhibitors of beta-amyloid production” (J Med Chem, 1999)

Tests used:
Type in all cases: functional, cell-based
N9 [1] = assay: Compound was tested for the inhibition of 1-40 beta-Amyloid Production in N9 cell line expressing beta-APP (wascreated by transfecting the human cDNA encoding beta-APP 695) by using immunoprecipitation assay
N9 [2] = assay: Compound was tested for the inhibition of 1-42 beta-Amyloid Production in N9 cell line expressing beta-APP (wascreated by transfecting the human cDNA encoding beta-APP 695) by using immunoprecipitation assay
N9 [3] = assay: Compound was tested for the inhibition of beta-Amyloid Production in N9 cell line expressing beta-APP; settings: Homo sapiens
N9 [4] = assay: Compound was tested for the inhibition of total beta-Amyloid Production in N9 cell line expressing beta-APP (wascreated by transfecting the human cDNA encoding beta-APP 695) by using enzyme-linked immunosorbent assay
N9 [5] = assay: Compound was tested for the inhibition of total beta-Amyloid Production in N9 cell line expressing beta-APP (wascreated by transfecting the human cDNA encoding beta-APP 695) by using immunoprecipitation assay

CCC(C)[C@H](NC(=O)/C=C/c1cc(OC)cc(OC)c1)C(=O)N[C@H](C=O)CC(C)C (stereo not given in full)
IC50 (N9 [1]): 22 µM | IC50 (N9 [2]): > 50 µM | IC50 (N9 [3]): 9.6 µM | IC50 (N9 [4]): 10 µM | IC50 (N9 [5]): 15 µM
